In US20210122780A1, “COMPOSITIONS FOR THE PREVENTION AND TREATMENT OF PARKINSON'S DISEASE” (Metselex, Inc., priority 2018, published 2021):
Entries after “also recorded” stand apart in the source; their conditions may differ. Where two headings read alike, the source gives them in different places.

Assays:
[1] = Stability in tris glycine buffer before AP addition (31P NMR); assay type: physicochemical; conditions: 0.100 M tris glycine buffer, 1.0 mM ZnCl2, 1.0 mM MgCl2, 1 h
Protocol: (§1) Compound 19d (10.0 mg, 0.016 mmol) or compound 3 (8.7 mg, 0.016 mmol) were dissolved in 0.6 mL of a 0.100 M tris glycine buffer solution containing 1.0 mM ZnCl2 and 1.0 mM MgCl2. […] 50 μL of the previously prepared AP stock solution was further diluted by addition to 0.950 mL of a 0.100 M tris glycine buffer containing 1.0 mM ZnCl2 and 1.0 mM MgCl2. 10.0 μL of this diluted AP solution was added to the prodrug solution by syringe. A series of 42 inverse-gated decoupled ^31P NMR's were taken (24 scans each, approximately one minute acquisition time). Conversion (%) was determined from the relative integration of the starting material and product peaks, NMR time stamps were used to determine time. Each experiment was repeated three times.

[2] = Aqueous solubility of prodrug salts; conditions: water
[3] = assay type: physicochemical; conditions: for percent starting material remaining: after one week at rt in D2O solution; for stability on cold storage: stored in a freezer / cold
Protocol: Measurement of chemical stability of phosphorylated compounds. 4.0 mg of prodrug (19b, 19c, or 19d) were dissolved in 1.0 mL D2O. A sealed capillary tube containing phenylphosphonic acid dissolved in D2O was added as a standard. At time=0, a ^1H NMR spectrum was obtained and the proton signal at […]5.51 was integrated (It=0) relative to the aromatic signals from phenylphosphonic acid. After 7 days at rt, a new NMR spectrum was taken and the proton signal at δ 5.51 was integrated again (It=7). The percent starting material remaining was It=7/It=0×100. Each experiment was repeated three times. Chemical stability results obtained either by measuring the disappearance of starting material relative to the internal standard by ^31P NMR or by using inverse-gated decoupled phosphorus NMR and integrating starting material and product were very similar to the numbers obtained using ^1H NMR. For 19e, 4.0 mg 19b was dissolved in D2O and an additional equivalent of Tris added (the stoichiometry was confirmed by ^1H NMR) and the experiment conducted as above.

[4] = tested on: Alkaline phosphatase from bovine intestinal mucosa; test: Alkaline phosphatase activation of prodrugs (31P NMR); assay type: biochemical; conditions: in vitro, FIG. 5
Protocol: Alkaline phosphatase activation of prodrugs 3 and 19d. Alkaline phosphatase from bovine intestinal mucosa (Sigma-Aldrich, P5521-2KU) was dissolved in 2.0 mL of a 0.100 M sodium glycine buffer containing 1.0 mM ZnCl2 and 1.0 mM MgCl2. This stock solution was stored at 4° C. between uses.
as §1

[5] = assay type: physicochemical; conditions: after one day at rt
Protocol: Chemical stability in pH 7.4 tris-buffered saline. 4.0 mg of prodrug 19d was dissolved in 0.9 mL H2O. To this solution was added 0.1 mL of tris-buffered saline (BM-300 from Boston BioProducts), containing tris (250 mM), KCl (27 mM), and NaCl (1.37 M). A sealed capillary tube containing phenylphosphonic acid dissolved in D2O was added as a standard. Chemical stability results were obtained by measuring the disappearance of starting material relative to the internal standard by ^31P NMR. The experiment was repeated three times. The standard deviation was ±3%.

SH-SY5Y cells [6] = test: MTT cell viability, SNP-induced cytotoxicity; conditions: for impact on UDCA-mediated protection against SNP-induced cytotoxicity: inhibitor 1 h, UDCA 200 μM 1 h, SNP 1 mM 24 h
Protocol: (§3) Human dopaminergic neuronal cell line, SH-SY5Y, was cultured in DMEM/F12 medium supplemented with 10% FBS (v/v), penicillin (100 U/m)-streptomycin (100 μg/ml) in 5% CO2 at 37° C. […] Usually, the culture medium was changed to DMEM/F12 medium with 0.5% FBS before any treatment to reduce the serum effect. In order to prevent the direct interaction between the treated chemicals, the culture medium was changed to fresh low-serum medium at the ent of pretreatment. UDCA was dissolved in ethanol as a 100× stock solution and diluted to the desired final concentrations. To estimate cell viability, 3-(4,5-dimetnylthiazol-2-yl)-2,5-diphenyltetrazolium bromide (MTT) reduction assay was performed. After cells were treated ad culture medium was removed, MTT solution (50 μg, 1 mg/ml in phosphate buffered saline, PBS) was added to each well in 96-well plate and incubated for 4 h at 37° C. The medium was carefully removed, 100 μl DMSO added to each well, and the plate agitated on an orbital shaker for 15 min to dissolve the formazan. The absorbance was measured at 540 nm using a microplate reader (SepctraMax M2, Molecular Devices).

SH-SY5Y cells [7] = tested on: SH-SY5Y cells
Protocol: as §3

mitochondrial membrane = test: Bax-induced alterations of mitochondrial membrane (FIG. 1, 2)
SH-SY5Y cells [8] = test: Nuclear staining (Hoechst 33342/PI) for apoptosis and necrosis; assay type: cell-based, human; conditions: pretreatment prior to SNP 1 mM 24 h
Protocol: For the fluorescent detection of apoptotic and necrotic cells, nuclear staining with Hoechst dye 33342 and propidium iodide (PI) was performed. SH-SY5Y cells were exposed to SNP (1 mM) for 24 h with or without pretreatment with UDCA or YS. After fixation with 1% paraformaldehyde (PBS) for 30 min at room temperature, cells were washed with PBS and then stained with Hoechst 33342 (10 μM) for 10 min. Cells were washed with PBS and further stained with PI (10 μM) for 10 min. Stained cells were washed with PBS and observed under a fluorescent microscopy. The apoptotic cells were determined as bright condensed and fragmented nuclei. PI positive cells stained with pink to red color were counted as necrotic cells.

SH-SY5Y cells [9] = test: Total ROS production (H2DCFDA); assay type: cell-based, human; conditions: 1 mM SNP
Protocol: (§2) After washing with Hank's balanced salt solution (HBSS), cells were incubated with 20 μM H2DCFDA or 50 μM DHR at 37° C. for 30 min, and then rinsed with HBSS. The fluorescence intensity was measured using an automatic fluorescence microplate reader (SpectraMax M2, Molecular Devices) at an excitation wavelength of 485 nm and an emission of 535 nm. The values were expressed as a percentage of fluorescence intensity to the untreated control group. The production of NO was determined by measuring nitrite, a stable oxidation product of NO in the culture medium. […] After a 10-min reaction, the absorbance at 550 nm was measured in a microplate reader (VersaMax, Molecular Devices). Sodium nitrite (NaNO2) was used as a standard to calculate nitrite concentrate and the values were expressed in micromoles.

Primary rat hepatocytes = test: Microarray gene expression profiling (Affymetrix Rat Expression Array 230A); assay type: cell-based; conditions: 100 μM UDCA, 24 h
Protocol: We determined the global profile of genes regulated by UDCA by using Affymetrix GeneChip® Rat Expression Array 230A, consisting of approximately 16,000 transcripts and variants. cRNA prepared from vehicle-treated cells was used for comparative analysis. The relative levels of gene expression after 24 h treatment of hepatocytes with 100 μM UDCA were compared by plotting the average difference between cells, and determining the fold change in gene expression. […] We also assessed the specificity and sensitivity of the microarray analysis. Hierarchical clustering was performed using specific gene subsets.

SH-SY5Y cells [10] = test: Mitochondrial membrane potential (JC-1); assay type: cell-based, human
Protocol: Anaspec Inc.). JC-1 preferentially accumulates in mitochondria as red aggregates in normal conditions but it exists as green monomers in the cytosol when MMP collapsed during apoptosis. The ratio of red/green fluorescence correlates with MMP. […] Next, 5 μg/ml JC-1 was added and incubated at 37° C. for 15 min in dark. After wash three times with PBS, MMP was measured at 535/590 nm (Ex/Em) for red fluorescence and 485/535 (Ex/Em) for green fluorescence using a fluorescence multimode microplate reader (Infinite 200; Tecan). Results were calculated as the ratio of red-to-green fluorescence and the values were expressed as the percentage over control.

SH-SY5Y cells [11] = test: NO production (Griess reagent, nitrite); assay type: cell-based, human; conditions: SNP 24 h
Protocol: as §2

Bcl-2, Bax, cytochrome c = test: Immunoblot analysis of Bcl-2, Bax, cytochrome c; assay type: cell-based, human
Protocol: Whole cell proteins were extracted using RIPA buffer (PBS, 1% NP-40, 0.5% Na deoxycholate, 0.1% SDS, 0.1 mg/ml PMSF, 30 mg/ml aprotinin, 1 mM Na3VO4). Cells were washed twice with PBS, lysed with RIPA buffer for 30 min on ice, and then centrifuged at 14,000×g for 10 min at 4° C. The supernatants were used as the total cell lysates. In some experiments, mitochondrial fraction was prepared from SH-Sy5Y cells using mitochondrial/cytosolic fraction kit (Biovision, Inc., Mountain View) according to the manufacturer's protocol. Protein concentration was determined by BCA protein assay kit (BioRad, Hercules, Calif.) using bovine serum albumin as a standard. […] The membrane was flocked in fresh blocking buffer (5% nonfat dry milk in Tris-buffered saline, pH 7.4, and containing 0.1% Tween 20) for 2 h at room temperature and rinsed in TBST buffer (0.1% Tween 20 in Tris-buffered saline, pH 7.4). The membrane was incubated at 4° C. with the following primary antibodies at dilutions of 1/1000: Bax, cytochrome c, Cox-4 or 1/4000: Bcl-2, actin. After three times washing with TBST buffer, membranes were incubated with horse radish peroxidase (HRP)-conjugated secondary antibodies (1:2000 dilutions) for 2 h at room temperature. Subsequently, the membrane was washed in TBST and the immunoreactive bands were detected by ECL chemiluminescence kit (GE Healthcare, USA). Protein bands were quantified by densitometric analysis.

C[C@H](CCC(=O)[O-])[C@H]1CC[C@H]2[C@@H]3[C@@H](O)C[C@@H]4C[C@H](OP(=O)([O-])O)CC[C@]4(C)[C@H]3CC[C@]12C.[Na+].[Na+] [Compound 3, 3-(Phosphonatooxy)-ursodeoxycholic acid sodium salt]
decomposition by 31P NMR in buffer [1]: Neither compound showed decomposition

C[C@H](CCC(=O)[O-])[C@H]1CC[C@H]2[C@@H]3[C@@H](OCOP(=O)(O)O)C[C@@H]4C[C@H](O)CC[C@]4(C)[C@H]3CC[C@]12C.C[C@H](CCC(=O)[O-])[C@H]1CC[C@H]2[C@@H]3[C@@H](OCOP(=O)(O)O)C[C@@H]4C[C@H](O)CC[C@]4(C)[C@H]3CC[C@]12C.[Na+].[Na+] [Compound 13b, 7-(Phosphonooxymethoxy)-ursodeoxycholic acid sodium salt]
aqueous solubility, rapidly dissolving at all concentrations tested [2]: ≥ 10 mg/mL | stability in D2O solution overnight ([3]; D2O, overnight): a significant portion of the material decomposed

CC(CCC(=O)OCOP(=O)(O)O)C1CCC2C3C(O)CC4CC(O)CCC4(C)C3CCC12C (stereo not shown) [Compound 19b, ursodeoxycholic acid phosphonooxymethoxy ester]
aqueous solubility, rapidly dissolving at all concentrations tested [2]: ≥ 20 mg/mL | percent starting material remaining [3]: 36% | stability on cold storage [3]: stable for extended periods of time when stored in a freezer

CC(CCC(=O)OCOP(=O)(O)O)C1CCC2C3C(O)CC4CC(O)CCC4(C)C3CCC12C (stereo not shown) [Compound 19c, ursodeoxycholic acid phosphonooxymethoxy ester]
percent starting material remaining [3]: 34%

CC(CCC(=O)OCOP(=O)(O)O)C1CCC2C3C(O)CC4CC(O)CCC4(C)C3CCC12C (stereo not shown) [Compound 19d, ursodeoxycholic acid phosphonooxymethoxy ester]
decomposition by 31P NMR in buffer [1]: Neither compound showed decomposition | rate of alkaline phosphatase catalyzed release of UDCA [4]: more rapidly released | aqueous solubility, rapidly dissolving at all concentrations tested [2]: > 20 mg/mL | percent starting material remaining [3]: 88% | chemical stability in solution ([3]; solution, ambient temperature): decomposed at a much slower rate | stability on cold storage ([3]; listed as mono-Tris salt of 19): stable for extended periods when stored cold | percent remaining in pH 7.4 tris buffer [5]: 81%

COc1ccc2c(c1)c(C1=C(c3c[nH]c4ccccc34)C(=O)NC1=O)cn2CCCN(C)C [Go6983]
impact on UDCA-mediated protection against SNP-induced cytotoxicity (SH-SY5Y cells [6]): did not have significant impact | cell viability, inhibitor alone (SH-SY5Y cells [7]): had no effects on cell viability

O=c1cc(N2CCOCC2)oc2c(-c3ccccc3)cccc12 [LY294002]
impact on UDCA-mediated protection against SNP-induced cytotoxicity (SH-SY5Y cells [6]): reversed

C[C@H](CCC(=O)NCCS(=O)(=O)O)[C@H]1CC[C@H]2[C@@H]3[C@@H](O)C[C@@H]4C[C@H](O)CC[C@]4(C)[C@H]3CC[C@]12C [TUDCA, tauroursodeoxycholic acid]
Bax-induced alterations in mitochondrial membrane polarity (mitochondrial membrane; FIG. 1): prevents | Bax-induced alterations in mitochondrial membrane protein order (mitochondrial membrane; FIG. 2): prevents

C[C@H](CCC(=O)O)[C@H]1CC[C@H]2[C@@H]3[C@@H](O)C[C@@H]4C[C@H](O)CC[C@]4(C)[C@H]3CC[C@]12C [UDCA, ursodeoxycholic acid]
apoptotic rate (SH-SY5Y cells [8]): 8.45±2.01% | ROS generation, % of SNP-treated group (SH-SY5Y cells [9]; 50 μM pretreatment): 79.68% | ROS generation, % of SNP-treated group (SH-SY5Y cells [9]; 100 μM pretreatment): 72.59% | ROS generation, % of SNP-treated group (SH-SY5Y cells [9]; 200 μM pretreatment): 58.09% | cell viability, substance alone (SH-SY5Y cells [6]; 24 h at doses of 50-200 μM, no SNP): no obvious change in the viability | SNP-induced loss of cell viability / cytotoxicity (SH-SY5Y cells [6]; pretreatment 1 h, then 1 mM SNP 24 h): prevented; also recorded: significantly attenuated | altered genes fulfilling the filtering criteria (Primary rat hepatocytes): 96 genes | genes down-regulated (Primary rat hepatocytes): 68 genes | genes up-regulated (Primary rat hepatocytes): 28 genes | genes with alterations in expression, greater than 1.5-fold change (Primary rat hepatocytes): Approximately 441 genes | share of genes with alterations in expression (Primary rat hepatocytes): ~2.76% | activity at 50 µM (SH-SY5Y cells [10]; Homo sapiens, SH-SY5Y, 50 μM pretreatment, 1 mM SNP 12 h, read-out: MMP, % of control group): 71% | activity at 100 µM (SH-SY5Y cells [10]; Homo sapiens, SH-SY5Y, 100 μM pretreatment, 1 mM SNP 12 h, read-out: MMP, % of control group): 88% | activity at 200 µM (SH-SY5Y cells [10]; Homo sapiens, SH-SY5Y, 200 μM pretreatment, 1 mM SNP 12 h, read-out: MMP, % of control group): 87% | MMP, substance alone (SH-SY5Y cells [10]; no SNP, FIG. 4B): did not show any alterations in MMP | NO production compared with the group treated with SNP alone (SH-SY5Y cells [11]; 50 μM pretreatment): 91.44% | NO production compared with the group treated with SNP alone (SH-SY5Y cells [11]; 100 μM pretreatment): 82.88% | NO production compared with the group treated with SNP alone (SH-SY5Y cells [11]; 200 μM pretreatment): 77.26% | ratio of Bcl-2/Bax (Bcl-2, Bax, cytochrome c; UDCA per se): 2.52±0.16 fold of control | ratio of Bcl-2/Bax (Bcl-2, Bax, cytochrome c; pretreatment with UDCA prior to SNP treatment): 2.21±0.09 fold of control | cytochrome c release from the mitochondria into the cytosol (Bcl-2, Bax, cytochrome c; pretreatment with UDCA, SNP 1 mM): 1.41±0.06 fold of control
